Measurements reported in ChEMBL document CHEMBL3507680, “University of Dundee, Gates Library screen for HepG2 cell viability”.

Assay: Human HepG2 cell viability assay in 384 well format
Format: toxicity, cell-based
Set-up: dose 125 nL, time 70.5 hour; cytotoxicity at 70.5 h: concentration not given beside the values
Conditions: HepG2 cells, read-out: Inhibition

SMILES	cytotoxicity at 70.5 h [%]
CN(C)Cc1cnn(-c2ccccc2C(=O)NCCC2CCCN2C)c1 (centres undefined)	-0.0444
Cc1cn[nH]c1C1COCCN1Cc1ccsc1 (centres undefined)	-0.803
Cc1nc(CN2CCOCC2c2[nH]ncc2C)cs1 (centres undefined)	1.5
CN(C)Cc1cccc(-c2cccnc2C(=O)NCC2CC2)c1	-2.77
Cc1ccsc1C(=O)NCc1ccnc(C2CCCOC2)n1 (centres undefined)	13.6
Cc1nccc(CN2Cc3nccn3CC2c2ccccc2)n1 (centres undefined)	-4.01
CCc1c(C)nc2cc(C3CCN(Cc4ccncc4C)C3)nn2c1O (centres undefined)	-3.92
O=C(CCC1CCCO1)N1CCc2nc(-c3cnccn3)nc(O)c2C1 (centres undefined)	-3.93
Oc1nc(-c2cnccn2)nc2c1CCN(Cc1ccccn1)C2	-5.26
O=C(Cc1ccc(F)cc1)N1CCCC(c2n[nH]c3nccnc23)C1 (centres undefined)	11.2
Cn1nc(C2CCCN(Cc3ccc(F)cc3F)C2)c2nccnc21 (centres undefined)	0.45
CC(C)Oc1cccc(CN2CCC(c3n[nH]c4ncccc34)CC2)c1	30.6
COc1ncccc1C(Cc1ccsc1)NC(=O)Cn1cccnc1=O (centres undefined)	22.1
Cc1c(C(=O)N2CCC(c3nc(C)n4ccsc34)CC2)cnn1C	-4.61
Cc1cc(-c2cnn(CCNC(=O)c3snnc3C)c2C2CC2)on1	-2.4
Cc1cc(-c2cnn(CCNC(=O)Cc3ccccn3)c2C2CC2)on1	-3.25
Cc1cccc(CN2CCC(c3nnsc3S(C)(=O)=O)CC2)c1	-5.38
CS(=O)(=O)c1snnc1C1CCN(Cc2cccc(O)c2)CC1	-7.7
Cc1cc(C)c2cc(CNC(C)C)c3nn(C)c(=O)n3c2c1	-1.75
Cc1cc(C)c2cc(CNCc3cccnc3)c3nn(C)c(=O)n3c2c1	-0.562
CN(C)Cc1ccnc(C2CCCN2Cc2ccc(F)cn2)n1 (centres undefined)	17.2

SMILES	cytotoxicity at 70.5 h [%]
Cc1ocnc1C(=O)N1CC[C@@H](O)[C@@H](O)[C@H](N2CCC(F)(F)CC2)C1	-3.42
COCc1ccc(C(=O)N2CC[C@H](O)[C@@H](n3ccnc3)CC2)cc1	-6.05
NC(=O)C1(CCCc2ccccn2)CCCN(c2ncccn2)C1 (centres undefined)	-2.53
COc1ccc(S(=O)(=O)N2CCC(O)(CN(C)C)C2)cc1 (centres undefined)	-4.76
CN1CCCC(c2cccc(CCC(=O)NCC3(C)COC3)n2)C1 (centres undefined)	-1.36
CC(C)N1CCC(Cc2cncc(-c3cccc(C(=O)O)c3)n2)CC1	10.8
Cc1cc(-c2cnn(CCNC(=O)c3cc[nH]n3)c2C2CC2)on1	-0.801
Cn1cc(C(=O)N2CCCC(c3cnccn3)C2)cn1 (centres undefined)	-4.7
Cc1cc(-c2cc(F)ccc2C(=O)O)nc(C2CCCCN2C(C)C)n1 (centres undefined)	-5.96
CN(C)CC1(O)CCN(S(=O)(=O)c2ccc(Cl)cc2)C1 (centres undefined)	3.29
CNc1cccc(C2CCCN(C(=O)c3cscn3)C2)n1 (centres undefined)	-8.52
Cc1nc(C(=O)N2CCCC(c3ccc4sc(N)nc4n3)C2)co1 (centres undefined)	-7.73
COc1ccc(-c2cc(C3CCN(C(C)=O)CC3)ccn2)cc1	-7.99
COc1cccc(CNC(=O)c2ccccc2-n2cnc(CN)c2)c1	17
CNC(=O)c1ccc(C2CN(C(=O)c3coc(C)n3)CCO2)nc1 (centres undefined)	-11.4
Cc1csc(Nc2nccnc2C2CCCN2CC(N)=O)n1 (centres undefined)	11
CN(C)S(=O)(=O)N1CCCC(c2cccc(Cc3ccccc3F)n2)C1 (centres undefined)	11.4
CC(=O)N1CCCC1c1nccnc1Nc1ncccn1 (centres undefined)	15.9
Cc1csc(Nc2nccnc2C2CCCN2S(C)(=O)=O)n1 (centres undefined)	-12.8
Cc1ccc(C(=O)N2CCCCC2c2[nH]ncc2S(C)(=O)=O)cn1 (centres undefined)	-2.26
COCCC(=O)N1CCCC1c1csc(Nc2ncccn2)n1 (centres undefined)	-7.18

SMILES	cytotoxicity at 70.5 h [%]
Cn1ccc(C(=O)N2CCCC(Cc3cnc4ccccc4c3)C2)n1 (centres undefined)	-1.48
Cc1noc(C2CCCN2C(=O)C2CCC2)n1 (centres undefined)	-11.5
Cc1c[nH]nc1C1CCCCN1C(=O)CNS(C)(=O)=O (centres undefined)	9.79
CC(=O)N1CCC(c2n[nH]c3nccnc23)CC1	-7.48
CNc1cncc(C2CCCN2Cc2ccnc(C)n2)n1 (centres undefined)	-0.507
Cc1ccsc1C(=O)N1CCCC(c2[nH]ncc2S(C)(=O)=O)C1 (centres undefined)	-6.4
C[C@]1(O)CCN(Cc2c[nH]cn2)C[C@@H]1Oc1cccc(F)c1	-7.83
Cc1cncc(C2CCCN(C(=O)c3cnco3)C2)n1 (centres undefined)	-3.92
CC(C)c1nnc(CN2CCc3ccc(S(N)(=O)=O)cc32)o1	-0.0777
Cc1nc(C(C)C)sc1C(C)N(C)C(=O)c1ccc(=O)n(C)c1 (centres undefined)	1.52
Cc1c(NCCO)cccc1OC1CCCC1	-2.5
N#CC1COCCN1C(=O)c1ccc2[nH]cnc2c1 (centres undefined)	-1.24
COc1cc(NC2CCCN(c3ncccn3)C2)cc(OC)c1 (centres undefined)	3.49
COc1c(CNCC(=O)N2CCN(C)CC2)c(C(C)C)nn1C	-5.29
O=C(CCn1cncn1)NCCOc1cccc(Cl)c1	-2.18
CC(C(=O)NCCc1ccc2c(c1)OCCO2)n1cncn1 (centres undefined)	-14.6
Cc1ccc(C(=O)NC2CCCN(S(C)(=O)=O)C2)c(=O)[nH]1 (centres undefined)	-2.62
Cc1ccc(C(=O)NC2CCCN(CC(N)=O)C2)c(=O)[nH]1 (centres undefined)	-7.85
Cc1nn(C)c(C)c1CC(=O)NCC1(C(N)=O)CCOCC1	22.8
Cc1nc(C)n(CC2CCCN2c2ncnc3sccc23)n1 (centres undefined)	-7.8
CCc1ccsc1C(=O)NC(C#N)CC (centres undefined)	-5.37

SMILES	cytotoxicity at 70.5 h [%]
Cc1sc2ncnc(N3CCCC3Cn3cccn3)c2c1C (centres undefined)	-11.4
CCNC(=O)CN(CC)C(=O)c1csc(Cc2ccccc2F)n1	-13.1
Cc1ncsc1COC(=O)c1cccc2c1OCCO2	-5.64
O=C(CCn1cccn1)NCCOc1ncc(Cl)cc1Cl	-10.6
Cc1cc(C)c(C#N)c(NCCn2cnnc2C(C)C)n1	0.173
CS(=O)(=O)N1CCC(CNc2cc(Cl)ccc2C#N)CC1	-6.86
N#CC1COCCN1C(=O)c1cccc2cc[nH]c12 (centres undefined)	-13.5
CCN(C)Cc1cccc(CNC(=O)NCCc2ccccn2)c1	-3.19
Cc1oc(-c2ccco2)nc1CN1CCc2cncnc2C1	-1.22
CS(=O)(=O)NCc1cccc(COC2CCCCC2)c1	-3.13
COCc1ccccc1C(=O)OCc1noc(C)n1	-15.9
OCCCNc1cccc(COC2CCCCC2)c1	21
CCc1nc2ccccc2c(=O)n1CC1(O)CCN(C(=O)C2CC2)CC1	-11.5
Cc1cc2c(=O)n3c(nc2s1)CCN(Cc1cnc(C)n1C)CC3	-4.27
Cc1cc2c(=O)n3c(nc2s1)CCN(Cc1[nH]cnc1C)CC3	-9.2
Cc1cc2c(=O)n3c(nc2s1)CCN(Cc1cncn1C)CC3	-7.45
CCc1nc2ccccc2c(=O)n1CC1(O)CCNCC1	-11.1
Cc1nc(CC(=O)N2CCC(c3nn(C)c4ncccc34)CC2)cs1	-9.42
Cc1ccc(CN2Cc3ccccc3O[C@]3(CC[C@H](CO)CC3)C2)s1	5.08
Cn1nc(C2CCCN(Cc3ccccc3)C2)c2nccnc21 (centres undefined)	2.89
Clc1ccc(-c2ccc(C3CNCCO3)nc2)cc1 (centres undefined)	-0.52
